According to ChEMBL document CHEMBL1641465, “2,4-Diaminopyrimidine inhibitors of c-Met kinase bearing benzoxazepine anilines” (Bioorg Med Chem Lett, 2011):

Columns and labels:
[1] = AUC (0 to infinity) in rat at 5 mg/kg, po; format: ADME, organism-based; design: time infinity, dose 5 mg/kg, route oral; settings: plasma
[2] = Half life in rat at 1 mg/kg, iv; format: ADME, organism-based; design: dose 1 mg/kg, route intravenous; settings: in vivo
[3] = Clearance in rat at 1 mg/kg, iv; format: ADME, organism-based; design: dose 1 mg/kg, route intravenous; settings: in vivo
[4] = AUC (0 to infinity) in rat at 1 mg/kg, iv; format: ADME, organism-based; design: time infinity, dose 1 mg/kg, route intravenous; settings: plasma
[5] = Oral bioavailability in rat at 5 mg/kg; format: ADME, organism-based; settings: in vivo
[6] = Drug level in tumor of human GTL16 cells xenografted in mouse assessed as tumor regression at 100 mg/kg, po qd for 5 days 2 to 10 hrs after last dose; format: ADME, organism-based, Neoplasm; design: dose 100 mg/kg, route oral; settings: in vivo
[7] = Drug level in tumor of human GTL16 cells xenografted in mouse assessed as tumor regression at 100 mg/kg, po qd for 5 days 10 hrs after last dose; format: ADME, organism-based, Neoplasm; design: dose 100 mg/kg, route oral; settings: read-out: Drug uptake

| AUC(0-inf) [1] [ng·h/mL] | half-life [2] [min] | clearance [3] [mL/min/kg] | AUC(0-inf) [4] [ng·h/mL] | bioavailability [5] [%] | Drug uptake [6] [ng/g] | concentration at 10 h [7] [ng/g] | SMILES |
| --- | --- | --- | --- | --- | --- | --- | --- |
| 913 | 72 | 15.3 | 1220 | 15 | 125 |  | CCOC(=O)N1CCCOc2cc(Nc3ncc(Cl)c(Nc4c(F)cccc4C(=O)NC)n3)ccc21 |
| < 100 |  |  |  |  |  |  | CCN1CCCOc2cc(Nc3ncc(Cl)c(Nc4c(F)cccc4C(=O)NC)n3)ccc21 |
| < 100 |  |  |  |  |  |  | CNC(=O)c1cccc(F)c1Nc1nc(Nc2ccc3c(c2)OCCCN3CCN2CCCC2)ncc1Cl |
|  | 18 | 34 |  |  |  | > 200 | CNC(=O)c1cccc(F)c1Nc1nc(Nc2ccc3c(c2)OCCCN3)ncc1Cl |
